Test results published in patent publication US11014941B2, “Pyrrolopyrimidine derivatives useful as inhibitors of influenza virus replication” (priority 2017, dated 2021).

Each compound was assayed against Influenza PB2 (Influenza A virus, UniProt P03428) (assay: biochemical). Details: read-out: Influenza PB2 affinity, IC50.
Format: binding

Influenza PB2, sequence (P03428 whole entry, looked up): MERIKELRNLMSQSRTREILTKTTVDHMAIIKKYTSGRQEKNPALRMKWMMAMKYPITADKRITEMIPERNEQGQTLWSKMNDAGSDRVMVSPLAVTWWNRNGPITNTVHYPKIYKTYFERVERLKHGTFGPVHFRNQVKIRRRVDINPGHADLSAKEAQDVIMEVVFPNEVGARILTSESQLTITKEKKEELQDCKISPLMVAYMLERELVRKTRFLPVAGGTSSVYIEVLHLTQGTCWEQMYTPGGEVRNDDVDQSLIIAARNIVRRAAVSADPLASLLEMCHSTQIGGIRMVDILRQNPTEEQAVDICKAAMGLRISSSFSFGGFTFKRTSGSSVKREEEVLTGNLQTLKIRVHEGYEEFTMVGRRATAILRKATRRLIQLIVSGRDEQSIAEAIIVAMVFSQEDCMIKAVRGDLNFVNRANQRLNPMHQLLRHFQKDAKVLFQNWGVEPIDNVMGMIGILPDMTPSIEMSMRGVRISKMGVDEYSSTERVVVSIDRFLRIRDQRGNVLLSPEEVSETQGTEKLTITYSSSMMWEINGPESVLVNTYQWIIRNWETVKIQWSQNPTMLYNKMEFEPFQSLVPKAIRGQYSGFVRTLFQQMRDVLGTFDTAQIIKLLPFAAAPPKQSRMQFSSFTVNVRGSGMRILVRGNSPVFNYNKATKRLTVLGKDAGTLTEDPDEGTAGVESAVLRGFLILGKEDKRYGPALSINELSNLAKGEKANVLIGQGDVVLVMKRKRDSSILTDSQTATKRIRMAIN

Row | Structure (SMILES) | IC50 [µM]
1 | O=C(O)[C@@H]1CCCC[C@H]1n1ccc2cnc(-c3c[nH]c4ncc(F)cc34)nc21 (racemic) [Compound B15] | 1 to 10
2 | CNC(=O)[C@@H]1CCCC[C@H]1n1cc(F)c2cnc(-c3c[nH]c4ncc(Cl)cc34)nc21 (racemic) [Compound B95] | 10 to 100
3 | CCOCCOCCCCC(=O)N[C@H]1CCC[C@@H](n2ccc3cnc(-c4c[nH]c5ncc(F)cc45)nc32)C1 (relative stereo) [Compound B100] | 10 to 100
4 | O=C(O)[C@@H]1C2CCC(CC2)[C@H]1n1cc(-c2ccncc2F)c2cnc(-c3c[nH]c4ncc(Cl)cc34)nc21 (relative stereo) [Compound B211] | 1 to 10
5 | O=C(O)[C@@H]1C2CCC(CC2)[C@H]1n1cc(-c2ccncc2Cl)c2cnc(-c3c[nH]c4ncc(Cl)cc34)nc21 (relative stereo) [Compound B212] | 1 to 10
6 | O=C(O)[C@@H]1CCCC[C@H]1n1ccc2cnc(-c3c[nH]c4ncc(F)cc34)nc21 (single isomer, unassigned) [Compound B17] | < 1
7 | O=C(O)[C@H]1CCCC1n1ccc2cnc(-c3c[nH]c4ncc(F)cc34)nc21 (single isomer, unassigned) [Compound B21] | 1 to 10
8 | O=C(O)[C@H]1CCCC1n1ccc2cnc(-c3c[nH]c4ncc(F)cc34)nc21 (single isomer, unassigned) [Compound B22] | 1 to 10
9 | O=C(O)[C@@H]1CCCC[C@H]1n1ccc2cnc(-c3c[nH]c4ncc(F)cc34)nc21 (single isomer, unassigned) [Compound B24] | < 1
10 | CNC(=O)[C@@H]1CCCC[C@H]1n1cc(F)c2cnc(-c3c[nH]c4ncc(Cl)cc34)nc21 (single isomer, unassigned) [Compound B93] | 1 to 10
11 | O=C(O)[C@H]1C2CCC(CC2)C1n1cc(Cl)c2cnc(-c3c[nH]c4ncc(F)cc34)nc21 (single isomer, unassigned) [Compound B132] | < 1
12 | O=C(O)[C@H]1C2CCC(CC2)C1n1cc(Cl)c2cnc(-c3c[nH]c4ncc(F)cc34)nc21 (single isomer, unassigned) [Compound B133] | < 1
13 | O=C(O)[C@@H]1C2CCC(CC2)C1n1cc(Cl)c2cnc(-c3c[nH]c4ncc(Cl)cc34)nc21 (single isomer, unassigned) [Compound B136] | 1 to 10
14 | O=C(O)[C@@H]1C2CCC(CC2)C1n1cc(Cl)c2cnc(-c3c[nH]c4ncc(Cl)cc34)nc21 (single isomer, unassigned) [Compound B137] | < 1
15 | O=C(O)[C@@H]1C2CCC(CC2)C1n1cc(F)c2cnc(-c3c[nH]c4ncc(Cl)cc34)nc21 (single isomer, unassigned) [Compound B143] | < 1
16 | O=C(O)[C@@H]1C2CCC(CC2)C1n1cc(F)c2cnc(-c3c[nH]c4ncc(Cl)cc34)nc21 (single isomer, unassigned) [Compound B144] | < 1
17 | O=C(O)[C@@H]1C2CCC(CC2)C1n1cc(-c2ccncc2)c2cnc(-c3c[nH]c4ncc(Cl)cc34)nc21 (single isomer, unassigned) [Compound B189] | 1 to 10
18 | O=C(O)[C@@H]1C2CCC(CC2)C1n1cc(-c2ccncc2)c2cnc(-c3c[nH]c4ncc(Cl)cc34)nc21 (single isomer, unassigned) [Compound B190] | 1 to 10
19 | CNC(=O)[C@@H]1C2CCC(CC2)C1n1cc(F)c2cnc(-c3c[nH]c4ncc(Cl)cc34)nc21 (single isomer, unassigned) [Compound B194] | 1 to 10
20 | CNC(=O)[C@@H]1C2CCC(CC2)C1n1cc(F)c2cnc(-c3c[nH]c4ncc(Cl)cc34)nc21 (single isomer, unassigned) [Compound B195] | 10 to 100
21 | CN(C)C(=O)Cn1ccc2c(-c3c[nH]c4ncc(F)cc34)ncnc21 [Compound A1] | 10 to 100
22 | COC(=O)CCn1ccc2c(-c3c[nH]c4ncc(F)cc34)ncnc21 [Compound A2] | 10 to 100
23 | O=C(O)Cn1ccc2c(-c3c[nH]c4ncc(F)cc34)ncnc21 [Compound A3] | 1 to 10
24 | CN(C)C(=O)CCn1ccc2c(-c3c[nH]c4ncc(F)cc34)ncnc21 [Compound A4] | 10 to 100

Row | Structure (SMILES) | IC50 [µM]
25 | O=C(O)CCn1ccc2c(-c3c[nH]c4ncc(F)cc34)ncnc21 [Compound A5] | 10 to 100
26 | O=C(O)CNC(=O)Cn1ccc2c(-c3c[nH]c4ncc(F)cc34)ncnc21 [Compound A6] | 10 to 100
27 | C[C@H](NC(=O)Cn1ccc2c(-c3c[nH]c4ncc(F)cc34)ncnc21)C(=O)O [Compound A7] | 10 to 100
28 | COC(=O)[C@H](Cc1ccccc1)NC(=O)Cn1ccc2c(-c3c[nH]c4ncc(F)cc34)ncnc21 [Compound A8] | > 100
29 | O=C(O)[C@H]1CCCN1C(=O)Cn1ccc2c(-c3c[nH]c4ncc(F)cc34)ncnc21 [Compound A9] | 10 to 100
30 | COC(=O)[C@H](C)NC(=O)Cn1ccc2c(-c3c[nH]c4ncc(F)cc34)ncnc21 [Compound A10] | 10 to 100
31 | O=C(Cn1ccc2c(-c3c[nH]c4ncc(F)cc34)ncnc21)N[C@@H](Cc1ccccc1)C(=O)O [Compound A11] | 10 to 100
32 | COC(=O)C[C@H](NC(=O)Cn1ccc2c(-c3c[nH]c4ncc(F)cc34)ncnc21)C(=O)OC [Compound A12] | > 100
33 | COC(=O)[C@H](CO)NC(=O)Cn1ccc2c(-c3c[nH]c4ncc(F)cc34)ncnc21 [Compound A13] | > 100
34 | O=C(O)C[C@H](NC(=O)Cn1ccc2c(-c3c[nH]c4ncc(F)cc34)ncnc21)C(=O)O [Compound A14] | 1 to 10
35 | COC(=O)[C@H]1CCCN1C(=O)Cn1ccc2c(-c3c[nH]c4ncc(F)cc34)ncnc21 [Compound A15] | > 100
36 | COC(=O)CNC(=O)CCn1ccc2c(-c3c[nH]c4ncc(F)cc34)ncnc21 [Compound A16] | > 100
37 | NC(=O)C[C@H](NC(=O)Cn1ccc2c(-c3c[nH]c4ncc(F)cc34)ncnc21)C(=O)O [Compound A17] | 1 to 10
38 | COC(=O)[C@@H](Cc1ccccc1)NC(=O)CCn1ccc2c(-c3c[nH]c4ncc(F)cc34)ncnc21 [Compound A18] | > 100
39 | COC(=O)[C@H](CO)NC(=O)CCn1ccc2c(-c3c[nH]c4ncc(F)cc34)ncnc21 [Compound A19] | 10 to 100
40 | O=C(Cn1ccc2c(-c3c[nH]c4ncc(F)cc34)ncnc21)N[C@@H](CO)C(=O)O [Compound A20] | 1 to 10
41 | CN(C)C(=O)Cn1ccc2cnc(-c3c[nH]c4ncc(F)cc34)nc21 [Compound B1] | 10 to 100
42 | CN(C)C(=O)CCn1ccc2cnc(-c3c[nH]c4ncc(F)cc34)nc21 [Compound B2] | 10 to 100
43 | COC(=O)CCn1ccc2cnc(-c3c[nH]c4ncc(F)cc34)nc21 [Compound B3] | > 100
44 | O=C(O)Cn1ccc2cnc(-c3c[nH]c4ncc(F)cc34)nc21 [Compound B4] | 10 to 100
45 | O=C(O)CCn1ccc2cnc(-c3c[nH]c4ncc(F)cc34)nc21 [Compound B5] | 10 to 100
46 | CN(C)C(=O)CN1CCc2cnc(-c3c[nH]c4ncc(F)cc34)nc21 [Compound B6] | 10 to 100
47 | COC(=O)[C@H](C)NC(=O)Cn1ccc2cnc(-c3c[nH]c4ncc(F)cc34)nc21 [Compound B7] | > 100
48 | COC(=O)[C@H](Cc1ccccc1)NC(=O)Cn1ccc2cnc(-c3c[nH]c4ncc(F)cc34)nc21 [Compound B8] | > 100

Row | Structure (SMILES) | IC50 [µM]
49 | O=C(O)CN1CCc2cnc(-c3c[nH]c4ncc(F)cc34)nc21 [Compound B9] | > 100
50 | COC(=O)CNC(=O)Cn1ccc2cnc(-c3c[nH]c4ncc(F)cc34)nc21 [Compound B10] | > 100
51 | C[C@H](NC(=O)Cn1ccc2cnc(-c3c[nH]c4ncc(F)cc34)nc21)C(=O)O [Compound B11] | 10 to 100
52 | CN(C)C(=O)CCN1CCc2cnc(-c3c[nH]c4ncc(F)cc34)nc21 [Compound B12] | 10 to 100
53 | O=C(O)CCN1CCc2cnc(-c3c[nH]c4ncc(F)cc34)nc21 [Compound B13] | 10 to 100
54 | O=C(Cn1ccc2cnc(-c3c[nH]c4ncc(F)cc34)nc21)N[C@@H](Cc1ccccc1)C(=O)O [Compound B14] | 10 to 100
55 | O=C(O)[C@H]1CCC[C@@H]1n1ccc2cnc(-c3c[nH]c4ncc(F)cc34)nc21 [Compound B16] | 1 to 10
56 | O=C(O)/C=C/n1ccc2cnc(-c3c[nH]c4ncc(F)cc34)nc21 [Compound B18] | 10 to 100
57 | COC(=O)[C@@H]1CCC[C@H]1n1ccc2cnc(-c3c[nH]c4ncc(F)cc34)nc21 [Compound B19] | 1 to 10
58 | COC(=O)[C@H]1CCCC[C@@H]1n1ccc2cnc(-c3c[nH]c4ncc(F)cc34)nc21 [Compound B20] | 10 to 100
59 | COC(=O)/C=C/n1ccc2cnc(-c3c[nH]c4ncc(F)cc34)nc21 [Compound B23] | 10 to 100
60 | CCOCCOCCOCCNC(=O)[C@@H]1CCCC[C@H]1n1ccc2cnc(-c3c[nH]c4ncc(F)cc34)nc21 [Compound B25] | 1 to 10
61 | CCOCCOCCOCCN(C)C(=O)[C@@H]1CCCC[C@H]1n1ccc2cnc(-c3c[nH]c4ncc(F)cc34)nc21 [Compound B26] | 10 to 100
62 | CCOCCOCCOCCNC(=O)N[C@H]1CCC[C@@H](n2ccc3cnc(-c4c[nH]c5ncc(F)cc45)nc32)C1 [Compound B27] | 10 to 100
63 | CCOCCOCCOCC(=O)N[C@@H]1CCC[C@H](n2ccc3cnc(-c4c[nH]c5ncc(F)cc45)nc32)C1 [Compound B28] | 10 to 100
64 | CCOCCOCCOCCN(C)C(=O)N[C@H]1CCC[C@@H](n2ccc3cnc(-c4c[nH]c5ncc(F)cc45)nc32)C1 [Compound B29] | 10 to 100
65 | CCOCCOCCOCCNC(=O)[C@@H]1CCCC[C@@H]1n1ccc2cnc(-c3c[nH]c4ncc(F)cc34)nc21 [Compound B30] | 10 to 100
66 | CCOCCOCCOCCNC(=O)N1CCC[C@H](n2ccc3cnc(-c4c[nH]c5ncc(F)cc45)nc32)C1 [Compound B31] | 10 to 100
67 | CCOCCOCCOCC(=O)N1CCC[C@H](n2ccc3cnc(-c4c[nH]c5ncc(F)cc45)nc32)C1 [Compound B32] | 10 to 100
68 | CCCCCOCCOCCNC(=O)N1CCC[C@H](n2ccc3cnc(-c4c[nH]c5ncc(F)cc45)nc32)C1 [Compound B33] | 10 to 100
69 | CCCCCOCCCCCNC(=O)N1CCC[C@H](n2ccc3cnc(-c4c[nH]c5ncc(F)cc45)nc32)C1 [Compound B34] | > 100
70 | CCOCCCCCOCCNC(=O)N1CCC[C@H](n2ccc3cnc(-c4c[nH]c5ncc(F)cc45)nc32)C1 [Compound B35] | 10 to 100
